Reference: patent US20230416299A1, “COMPOUND AND METHOD FOR THE TREATMENT AND DIAGNOSIS OF NEURODEGENERATIVE CONDITIONS” (Swansea University, priority 2013, published 2023)

Key:
Lxrβ = target: T1, Lxrβ (Homo sapiens, UniProt P55055); experiment: Lxr-responsive luciferase reporter assay (Lxre + Lxrβ) in SN4741 neural cells; assay type: cell-based, mouse; details: for Lxrβ activation, luciferase activity: SN4741 cells, 10 μM, 24 h; for Lxrβ activational capacity in combination with 22R-HC: acid 10 μM + 22R-HC 10 μM
T1 construct: expressed in transfected cells; host or cells: SN4741 mouse neuronal cell line
T1 sequence (P55055 1-460): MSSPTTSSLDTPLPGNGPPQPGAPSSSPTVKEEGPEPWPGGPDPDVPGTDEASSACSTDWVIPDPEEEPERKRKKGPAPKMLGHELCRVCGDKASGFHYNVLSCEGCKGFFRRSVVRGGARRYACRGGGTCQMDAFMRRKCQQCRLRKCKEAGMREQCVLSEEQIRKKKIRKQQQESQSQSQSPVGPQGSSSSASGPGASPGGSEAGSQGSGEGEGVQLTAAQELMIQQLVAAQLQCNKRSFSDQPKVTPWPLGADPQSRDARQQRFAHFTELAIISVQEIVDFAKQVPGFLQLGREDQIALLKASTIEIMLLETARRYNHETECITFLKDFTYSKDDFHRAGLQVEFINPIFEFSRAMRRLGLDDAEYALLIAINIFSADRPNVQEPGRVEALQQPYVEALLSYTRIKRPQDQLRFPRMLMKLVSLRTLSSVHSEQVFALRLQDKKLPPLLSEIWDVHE
Description: (§1) Luciferase Reporter Assay.

Lxrβ-LBD = target: T2, Lxrβ-LBD (Homo sapiens, UniProt P55055); experiment: LanthaScreen TR-FRET Lxrβ coactivator assay; assay type: binding
T2 construct: purchased Invitrogen
T2 sequence (P55055 222-460 limits assumed): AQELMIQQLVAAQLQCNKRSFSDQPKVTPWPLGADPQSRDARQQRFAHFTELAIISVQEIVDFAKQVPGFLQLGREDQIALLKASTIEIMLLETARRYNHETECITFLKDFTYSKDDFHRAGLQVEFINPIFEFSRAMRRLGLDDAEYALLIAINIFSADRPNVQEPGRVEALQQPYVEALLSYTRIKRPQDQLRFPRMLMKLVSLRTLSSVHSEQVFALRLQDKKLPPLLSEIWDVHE
Description: Lxrβ Ligand Binding Assay. For Lxrβ ligand binding activity measurement, the applicants used the LANTHASCREEN™ TR-FRET Lxrβ Coactivator Assay (Invitrogen). The assay uses a terbium (Tb)-labeled anti-GST antibody, a fluorescein-labeled coactivator peptide and the Lxrβ-LBD tagged with glutathione-S-transferase (GST). Binding of the agonist/ligand to Lxrβ-LBD causes a conformational change that result in an increase in the affinity of the Lxrβ for the coactivator peptide. The close proximity of the fluorescently labeled coactivator peptide to the Tb-labeled antibody causes an increase in the TR-FRET signal intensity. The TR-FRET ratio of 520/495 was calculated using a Victor multi label reader with an excitation wavelength of 340 nm and emission wavelengths of 520 nm and 495 nm. The activational capacity of potential ligands was tested in a […] polypropylene plate, following the manufacturer's protocol.

Lxrα = target: T3, Lxrα (Homo sapiens, UniProt Q13133); experiment: Lxr-responsive luciferase reporter assay (Lxre + Lxrα) in SN4741 neural cells; assay type: cell-based, mouse; details: 10 μM, 24 h
T3 construct: expressed in transfected cells; host or cells: SN4741 mouse neuronal cell line
T3 sequence (Q13133 1-447): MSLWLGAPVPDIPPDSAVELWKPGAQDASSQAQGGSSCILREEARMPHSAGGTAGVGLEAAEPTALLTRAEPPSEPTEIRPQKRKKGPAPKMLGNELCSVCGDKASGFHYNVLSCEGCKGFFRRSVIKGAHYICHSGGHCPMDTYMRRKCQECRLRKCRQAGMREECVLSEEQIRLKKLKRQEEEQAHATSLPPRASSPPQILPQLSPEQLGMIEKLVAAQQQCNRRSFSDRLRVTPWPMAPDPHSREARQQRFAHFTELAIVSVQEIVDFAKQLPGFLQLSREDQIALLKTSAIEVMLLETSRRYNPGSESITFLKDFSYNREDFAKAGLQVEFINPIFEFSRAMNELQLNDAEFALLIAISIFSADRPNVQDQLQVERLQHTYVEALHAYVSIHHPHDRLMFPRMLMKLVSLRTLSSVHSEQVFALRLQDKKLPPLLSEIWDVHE
Description: as §1

[1] = system: Abca1, Abcg1 and Srebf1 transcript levels; experiment: Quantitative PCR of Lxr target genes in SN4741 cells; assay type: cell-based, mouse; details: SN4741 cells treated 3 h
Method: Quantitative PCR. Total RNA was extracted from SN4741 cells and zebrafish treated with the compounds of interest using the RNeasy Mini Kit (Qiagen), 1 μg was treated with RQ1 RNase-free DNase (Promega) and reverse transcribed using Superscript II Reverse Transcriptase (Invitrogen) and random primers (Invitrogen) (RT+ reaction). Parallel reactions without reverse transcriptase enzyme were done as a control (RT− reaction), and Sybergreen real-time quantitative PCR assays were performed. Expression levels were obtained by normalization with the value of the housekeeping gene encoding actin obtained for every sample in parallel assays.

| SMILES | Lxrβ activation, luciferase activity (Lxrβ) | Lxrβ activational capacity in combination with 22R-HC (Lxrβ) | Competitor concentration with significant difference (p<0.05) from 10 μM 3β,7α-diHCA alone in TR-FRET Lxrβ coactivator assay (Lxrβ-LBD; added to 10 μM 3β,7α-diHCA) [µM] | Competition with 3β,7α-diHCA in TR-FRET Lxrβ coactivator assay (Lxrβ-LBD; increasing concentrations with 3β,7α-diHCA at its most potent concentration) | Lxrα activation, luciferase activity (Lxrα) | Abca1, Abcg1 and Srebf1 transcript levels [1] | TR-FRET induction (coactivator recruitment to Lxrβ-LBD) (Lxrβ-LBD; dose response) |
| --- | --- | --- | --- | --- | --- | --- | --- |
| CC(CCC[C@@H](C)[C@H]1CC[C@H]2[C@@H]3CC=C4C[C@@H](O)CC[C@]4(C)[C@H]3CC[C@]12C)C(=O)O (stereo partly drawn) [3β-HCA, 3β-hydroxycholest-5-en-26-oic acid] | activates Lxr | No additive effect was observed | ≥ 5 | the effect of 3β,7α-diHCA was reduced to that of the latter acids | activates Lxr | induced transcription, but to a lesser extent | – |
| CC(CCC[C@@H](C)[C@H]1CC[C@H]2[C@@H]3[C@H](O)C=C4C[C@@H](O)CC[C@]4(C)[C@H]3CC[C@]12C)C(=O)O (stereo partly drawn) [3β,7α-diHCA, 3β,7α-dihydroxycholest-5-en-26-oic acid] | have the ability to activate both Lxrs | No additive effect was observed | – | – | have the ability to activate both Lxrs | increased transcripts levels to a similar degree as 22R-HC | induced FRET in a dose dependent manner to a higher degree than the other acids |
